From patent publication US10927106B2, “Benzothiazole derivatives as DYRK1 inhibitors” (PHARMASUM THERAPEUTICS AS, priority 2017, dated 2021)

Key:
Experiment in all cases: Kinase profiling, 33P ATP filter binding assay
Type in all cases: biochemical
Conditions in all cases: 1 micromolar inhibitor concentration, read-out: percentage inhibition
MKK2 = MKK2 (Homo sapiens (Human), UniProt P36507)
ERK1 = ERK1 (Homo sapiens (Human), UniProt P27361)
ERK2 = ERK2 (Homo sapiens (Human), UniProt P28482)
ERK5 = ERK5 (Homo sapiens (Human), UniProt Q13164)
JNK1 = JNK1 (Homo sapiens (Human), UniProt P45983)
p38g MAPK = p38g MAPK (Homo sapiens (Human), UniProt P53778)
ERK8 = ERK8 (Homo sapiens (Human), UniProt Q8TD08)
PDK1 = PDK1 (Homo sapiens (Human), UniProt O15530)
PKBb = PKBb (Homo sapiens (Human), UniProt P31751)
PKA = PKA (Homo sapiens (Human), UniProt P17612)
PKCa = PKCa (Homo sapiens (Human), UniProt P17252)
PKCz = PKCz (Homo sapiens (Human), UniProt Q05513)
PKD1 = PKD1 (Homo sapiens (Human), UniProt Q15139)
STK33 = STK33 (Homo sapiens (Human), UniProt Q9BYT3)
MAPKAP-K3 = MAPKAP-K3 (Homo sapiens (Human), UniProt Q16644)
Sequence of MAPKAP-K3 (Q16644 whole entry, species assumed): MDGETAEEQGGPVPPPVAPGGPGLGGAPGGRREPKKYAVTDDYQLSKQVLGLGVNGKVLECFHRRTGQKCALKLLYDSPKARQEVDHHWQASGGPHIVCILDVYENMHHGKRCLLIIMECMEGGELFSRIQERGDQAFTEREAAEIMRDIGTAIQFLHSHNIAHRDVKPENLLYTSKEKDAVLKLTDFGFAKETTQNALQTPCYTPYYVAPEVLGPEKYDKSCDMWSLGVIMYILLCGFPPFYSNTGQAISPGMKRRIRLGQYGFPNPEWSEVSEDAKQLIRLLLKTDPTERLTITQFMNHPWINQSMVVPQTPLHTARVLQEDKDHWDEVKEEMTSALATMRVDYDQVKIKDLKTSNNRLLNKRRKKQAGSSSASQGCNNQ

CHK1 = CHK1 (Homo sapiens (Human), UniProt O14757)
Sequence of CHK1 (O14757 whole entry, species assumed): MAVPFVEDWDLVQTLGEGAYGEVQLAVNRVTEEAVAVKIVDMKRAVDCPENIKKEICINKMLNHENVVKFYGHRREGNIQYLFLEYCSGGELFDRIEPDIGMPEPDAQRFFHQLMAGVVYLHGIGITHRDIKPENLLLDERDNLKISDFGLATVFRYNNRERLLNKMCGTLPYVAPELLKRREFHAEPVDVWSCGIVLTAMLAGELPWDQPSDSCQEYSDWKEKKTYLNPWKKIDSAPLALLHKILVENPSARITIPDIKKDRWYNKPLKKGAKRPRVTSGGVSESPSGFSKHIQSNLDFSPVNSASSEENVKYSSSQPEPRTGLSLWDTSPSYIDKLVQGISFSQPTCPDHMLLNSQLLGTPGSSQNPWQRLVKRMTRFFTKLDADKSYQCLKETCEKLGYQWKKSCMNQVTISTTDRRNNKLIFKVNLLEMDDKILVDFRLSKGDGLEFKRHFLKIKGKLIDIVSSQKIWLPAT

NUAK1 = NUAK1 (Homo sapiens (Human), UniProt O60285)
IKKb = IKKb (Homo sapiens (Human), UniProt O14920)
Sequence of IKKb (O14920 whole entry, species assumed): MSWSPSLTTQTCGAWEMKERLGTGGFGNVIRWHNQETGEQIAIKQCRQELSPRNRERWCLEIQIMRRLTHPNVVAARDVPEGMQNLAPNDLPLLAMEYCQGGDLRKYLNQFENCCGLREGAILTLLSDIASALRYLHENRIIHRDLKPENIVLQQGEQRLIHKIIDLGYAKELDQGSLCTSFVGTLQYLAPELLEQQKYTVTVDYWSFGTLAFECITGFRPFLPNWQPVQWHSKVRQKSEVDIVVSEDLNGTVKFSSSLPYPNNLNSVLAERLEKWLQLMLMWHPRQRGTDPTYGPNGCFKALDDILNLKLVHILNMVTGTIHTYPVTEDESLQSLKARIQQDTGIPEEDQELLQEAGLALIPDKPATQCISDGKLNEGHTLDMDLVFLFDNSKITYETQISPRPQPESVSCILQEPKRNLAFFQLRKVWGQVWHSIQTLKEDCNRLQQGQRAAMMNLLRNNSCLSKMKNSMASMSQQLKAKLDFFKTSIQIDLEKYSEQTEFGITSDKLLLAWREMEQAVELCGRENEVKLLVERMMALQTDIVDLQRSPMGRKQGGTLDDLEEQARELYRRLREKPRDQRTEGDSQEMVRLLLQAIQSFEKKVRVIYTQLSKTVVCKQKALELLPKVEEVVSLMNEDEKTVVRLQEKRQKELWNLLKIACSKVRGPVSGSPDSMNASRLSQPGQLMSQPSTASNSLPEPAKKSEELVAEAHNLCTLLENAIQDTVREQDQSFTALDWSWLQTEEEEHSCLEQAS

HIPK1 = HIPK1 (Homo sapiens (Human), UniProt Q86Z02)
MST3 = MST3 (Homo sapiens (Human), UniProt Q9Y6E0)
Sequence of MST3 (Q9Y6E0 whole entry, species assumed): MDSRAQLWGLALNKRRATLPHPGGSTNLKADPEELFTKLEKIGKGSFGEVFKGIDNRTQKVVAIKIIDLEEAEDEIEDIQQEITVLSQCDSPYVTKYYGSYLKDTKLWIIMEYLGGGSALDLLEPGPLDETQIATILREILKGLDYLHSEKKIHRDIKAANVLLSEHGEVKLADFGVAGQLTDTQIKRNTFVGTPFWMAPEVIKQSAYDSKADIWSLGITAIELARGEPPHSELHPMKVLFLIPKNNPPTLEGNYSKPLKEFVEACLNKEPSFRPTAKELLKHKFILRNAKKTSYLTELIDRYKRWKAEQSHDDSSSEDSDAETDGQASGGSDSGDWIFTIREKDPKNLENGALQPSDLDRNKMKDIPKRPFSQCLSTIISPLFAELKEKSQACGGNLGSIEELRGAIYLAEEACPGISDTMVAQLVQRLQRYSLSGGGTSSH

MAP4K3 = MAP4K3 (Homo sapiens (Human), UniProt Q8IVH8)
MINK1 = MINK1 (Homo sapiens (Human), UniProt Q8N4C8)
MLK1 = MLK1 (Homo sapiens (Human), UniProt P80192)
Sequence of MLK1 (P80192 whole entry, species assumed): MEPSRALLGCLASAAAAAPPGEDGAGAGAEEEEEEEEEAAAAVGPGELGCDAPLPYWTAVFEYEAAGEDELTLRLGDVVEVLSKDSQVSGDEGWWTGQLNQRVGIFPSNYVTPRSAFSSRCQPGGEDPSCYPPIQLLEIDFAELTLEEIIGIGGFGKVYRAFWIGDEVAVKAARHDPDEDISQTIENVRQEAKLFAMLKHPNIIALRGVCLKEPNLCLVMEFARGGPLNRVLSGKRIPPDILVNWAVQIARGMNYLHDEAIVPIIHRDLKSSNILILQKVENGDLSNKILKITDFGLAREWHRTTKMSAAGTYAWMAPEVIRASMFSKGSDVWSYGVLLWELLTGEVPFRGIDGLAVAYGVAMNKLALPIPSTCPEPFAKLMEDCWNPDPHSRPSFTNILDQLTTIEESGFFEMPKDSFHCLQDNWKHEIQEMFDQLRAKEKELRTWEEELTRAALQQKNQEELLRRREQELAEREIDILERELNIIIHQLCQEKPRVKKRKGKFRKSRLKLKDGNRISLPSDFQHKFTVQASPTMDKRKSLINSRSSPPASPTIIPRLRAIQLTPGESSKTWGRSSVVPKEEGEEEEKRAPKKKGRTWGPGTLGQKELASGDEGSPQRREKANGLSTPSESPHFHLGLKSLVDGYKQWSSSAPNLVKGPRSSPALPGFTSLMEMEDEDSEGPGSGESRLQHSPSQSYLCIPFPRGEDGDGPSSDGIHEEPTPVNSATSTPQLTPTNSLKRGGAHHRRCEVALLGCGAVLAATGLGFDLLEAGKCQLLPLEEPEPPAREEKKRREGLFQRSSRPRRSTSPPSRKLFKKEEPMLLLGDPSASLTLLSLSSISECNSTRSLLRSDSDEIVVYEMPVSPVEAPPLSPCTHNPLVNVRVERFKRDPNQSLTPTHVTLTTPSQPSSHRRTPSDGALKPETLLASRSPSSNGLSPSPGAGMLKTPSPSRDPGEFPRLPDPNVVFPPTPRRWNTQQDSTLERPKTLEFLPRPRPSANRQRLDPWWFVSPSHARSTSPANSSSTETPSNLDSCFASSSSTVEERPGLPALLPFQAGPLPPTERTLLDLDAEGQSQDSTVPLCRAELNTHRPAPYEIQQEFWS

TAK1 = TAK1 (Homo sapiens (Human), UniProt O43318)
IRAK1 = IRAK1 (Homo sapiens (Human), UniProt P51617)
OSR1 = OSR1 (Homo sapiens (Human), UniProt O95747)
TTK = TTK (Homo sapiens (Human), UniProt P33981)
CSK = CSK (Homo sapiens (Human), UniProt P41240)
ABL = ABL (Homo sapiens (Human), UniProt P00519)
JAK2 = JAK2 (Homo sapiens (Human), UniProt O60674)
SYK = SYK (Homo sapiens (Human), UniProt P43405)
ZAP70 = ZAP70 (Homo sapiens (Human), UniProt P43403)
EPH-B1 = EPH-B1 (Homo sapiens (Human), UniProt P54762)
EPH-B2 = EPH-B2 (Homo sapiens (Human), UniProt P29323)
Sequence of EPH-B2 (P29323 19-1055, species assumed): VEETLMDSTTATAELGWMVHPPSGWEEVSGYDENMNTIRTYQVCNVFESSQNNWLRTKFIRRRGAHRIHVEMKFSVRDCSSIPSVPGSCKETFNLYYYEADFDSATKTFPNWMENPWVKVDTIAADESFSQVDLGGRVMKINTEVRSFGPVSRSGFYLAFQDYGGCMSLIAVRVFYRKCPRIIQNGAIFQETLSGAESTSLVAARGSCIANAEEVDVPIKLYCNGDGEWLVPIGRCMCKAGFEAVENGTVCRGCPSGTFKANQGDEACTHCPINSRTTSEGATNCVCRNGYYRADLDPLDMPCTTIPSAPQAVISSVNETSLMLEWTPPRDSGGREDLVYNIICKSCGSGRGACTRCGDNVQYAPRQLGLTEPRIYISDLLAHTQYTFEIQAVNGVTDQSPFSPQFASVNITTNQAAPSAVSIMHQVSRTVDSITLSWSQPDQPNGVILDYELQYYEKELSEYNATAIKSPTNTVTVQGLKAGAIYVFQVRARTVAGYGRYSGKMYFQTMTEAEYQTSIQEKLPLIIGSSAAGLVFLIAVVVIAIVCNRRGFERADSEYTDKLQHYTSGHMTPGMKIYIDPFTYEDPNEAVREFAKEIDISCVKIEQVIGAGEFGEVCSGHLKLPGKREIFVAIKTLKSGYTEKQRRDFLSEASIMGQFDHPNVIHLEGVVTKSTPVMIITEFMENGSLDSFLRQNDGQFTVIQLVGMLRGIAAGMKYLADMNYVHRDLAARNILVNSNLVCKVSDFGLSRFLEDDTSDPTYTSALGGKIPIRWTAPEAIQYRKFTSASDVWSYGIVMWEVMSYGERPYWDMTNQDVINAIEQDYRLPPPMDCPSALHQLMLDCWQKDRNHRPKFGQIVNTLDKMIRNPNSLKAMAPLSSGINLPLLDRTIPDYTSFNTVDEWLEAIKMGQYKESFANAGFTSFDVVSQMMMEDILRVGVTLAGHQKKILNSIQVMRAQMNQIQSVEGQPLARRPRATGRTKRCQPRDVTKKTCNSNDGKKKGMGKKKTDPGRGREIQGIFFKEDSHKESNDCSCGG

EPH-B3 = EPH-B3 (Homo sapiens (Human), UniProt P54753)
FGF-R1 = FGF-R1 (Homo sapiens (Human), UniProt P11362)
HER4 = HER4 (Homo sapiens (Human), UniProt Q15303)
IGF-1R = IGF-1R (Homo sapiens (Human), UniProt P08069)
TrkA = TrkA (Homo sapiens (Human), UniProt P04629)
DDR2 = DDR2 (Homo sapiens (Human), UniProt Q16832)
Sequence of DDR2 (Q16832 22-855, species assumed): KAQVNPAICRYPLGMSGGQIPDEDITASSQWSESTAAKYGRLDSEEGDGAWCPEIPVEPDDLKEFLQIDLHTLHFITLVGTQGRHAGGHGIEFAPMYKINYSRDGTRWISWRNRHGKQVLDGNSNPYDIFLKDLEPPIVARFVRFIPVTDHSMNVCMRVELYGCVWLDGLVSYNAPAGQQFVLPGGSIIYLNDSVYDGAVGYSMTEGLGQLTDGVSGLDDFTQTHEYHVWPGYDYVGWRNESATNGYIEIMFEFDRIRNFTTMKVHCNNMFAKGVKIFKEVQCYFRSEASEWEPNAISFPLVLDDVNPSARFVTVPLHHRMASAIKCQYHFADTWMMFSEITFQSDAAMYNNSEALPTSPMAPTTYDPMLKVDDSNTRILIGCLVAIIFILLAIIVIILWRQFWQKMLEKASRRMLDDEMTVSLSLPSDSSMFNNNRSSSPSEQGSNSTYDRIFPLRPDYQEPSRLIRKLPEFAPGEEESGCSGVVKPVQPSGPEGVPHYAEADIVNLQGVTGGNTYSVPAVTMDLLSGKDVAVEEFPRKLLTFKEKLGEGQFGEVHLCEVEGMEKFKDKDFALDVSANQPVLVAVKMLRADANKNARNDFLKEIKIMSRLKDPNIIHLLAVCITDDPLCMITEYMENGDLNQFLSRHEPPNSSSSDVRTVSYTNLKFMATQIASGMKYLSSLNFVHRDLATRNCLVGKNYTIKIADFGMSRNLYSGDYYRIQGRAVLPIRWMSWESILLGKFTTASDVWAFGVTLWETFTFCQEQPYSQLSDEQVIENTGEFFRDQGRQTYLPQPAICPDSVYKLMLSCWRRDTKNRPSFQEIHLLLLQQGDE

VEG-FR = VEG-FR (Homo sapiens (Human), UniProt P17948)
PDGFRA = PDGFRA (Homo sapiens (Human), UniProt P16234)

Q: Which results are given for `COc1ccc2sc(-c3cncc(NC(C)=O)c3)nc2c1` [4-93, N-(5-(5-Methoxybenzo[d]thiazol-2-yl)pyridin-3-yl)acetamide]?
A: inhibition at 1 µM (MKK2): 25%; inhibition at 1 µM (ERK1): 0%; inhibition at 1 µM (ERK2): 0%; inhibition at 1 µM (ERK5): 28%; inhibition at 1 µM (JNK1): 0%; inhibition at 1 µM (p38g MAPK): 0%; inhibition at 1 µM (ERK8): 11%; inhibition at 1 µM (PDK1): 0%; inhibition at 1 µM (PKBb): 0%; inhibition at 1 µM (PKA): 12%; inhibition at 1 µM (PKCa): 0%; inhibition at 1 µM (PKCz): 0%; inhibition at 1 µM (PKD1): 0%; inhibition at 1 µM (STK33): 0%; inhibition at 1 µM (MAPKAP-K3): 0%; inhibition at 1 µM (CHK1): 0%; inhibition at 1 µM (NUAK1): 0%; inhibition at 1 µM (IKKb): 0%; inhibition at 1 µM (HIPK1): 0%; inhibition at 1 µM (MST3): 0%; inhibition at 1 µM (MAP4K3): 0%; inhibition at 1 µM (MINK1): 0%; inhibition at 1 µM (MLK1): 0%; inhibition at 1 µM (TAK1): 52%; inhibition at 1 µM (IRAK1): 0%; inhibition at 1 µM (OSR1): 0%; inhibition at 1 µM (TTK): 12%; inhibition at 1 µM (CSK): 0%; inhibition at 1 µM (ABL): 3%; inhibition at 1 µM (JAK2): 0%; inhibition at 1 µM (SYK): 0%; inhibition at 1 µM (ZAP70): 0%; inhibition at 1 µM (EPH-B1): 0%; inhibition at 1 µM (EPH-B2): 0%; inhibition at 1 µM (EPH-B3): 0%; inhibition at 1 µM (FGF-R1): 0%; inhibition at 1 µM (HER4): 0%; inhibition at 1 µM (IGF-1R): 0%; inhibition at 1 µM (TrkA): 0%; inhibition at 1 µM (DDR2): 2%; inhibition at 1 µM (VEG-FR): 0%; inhibition at 1 µM (PDGFRA): 0%

Q: Which results are given for `CS(=O)(=O)Nc1cncc(-c2nc3cc(O)ccc3s2)c1` [4-99, N-(5-(5-Hydroxybenzo[d]thiazol-2-yl)pyridin-3-yl)methanesulfonamide]?
A: inhibition at 1 µM (MKK2): 0%; inhibition at 1 µM (ERK1): 0%; inhibition at 1 µM (ERK2): 0%; inhibition at 1 µM (ERK5): 7%; inhibition at 1 µM (JNK1): 0%; inhibition at 1 µM (p38g MAPK): 0%; inhibition at 1 µM (ERK8): 0%; inhibition at 1 µM (PDK1): 0%; inhibition at 1 µM (PKBb): 0%; inhibition at 1 µM (PKA): 3%; inhibition at 1 µM (PKCa): 0%; inhibition at 1 µM (PKCz): 0%; inhibition at 1 µM (PKD1): 0%; inhibition at 1 µM (STK33): 0%; inhibition at 1 µM (MAPKAP-K3): 0%; inhibition at 1 µM (CHK1): 0%; inhibition at 1 µM (NUAK1): 0%; inhibition at 1 µM (IKKb): 0%; inhibition at 1 µM (HIPK1): 0%; inhibition at 1 µM (MST3): 0%; inhibition at 1 µM (MAP4K3): 0%; inhibition at 1 µM (MINK1): 0%; inhibition at 1 µM (MLK1): 0%; inhibition at 1 µM (TAK1): 8%; inhibition at 1 µM (IRAK1): 0%; inhibition at 1 µM (OSR1): 0%; inhibition at 1 µM (TTK): 0%; inhibition at 1 µM (CSK): 0%; inhibition at 1 µM (ABL): 0%; inhibition at 1 µM (JAK2): 0%; inhibition at 1 µM (SYK): 0%; inhibition at 1 µM (ZAP70): 0%; inhibition at 1 µM (EPH-B1): 0%; inhibition at 1 µM (EPH-B2): 0%; inhibition at 1 µM (EPH-B3): 2%; inhibition at 1 µM (FGF-R1): 0%; inhibition at 1 µM (HER4): 0%; inhibition at 1 µM (IGF-1R): 0%; inhibition at 1 µM (TrkA): 0%; inhibition at 1 µM (DDR2): 0%; inhibition at 1 µM (VEG-FR): 0%; inhibition at 1 µM (PDGFRA): 0%
